The values that follow come from patent US20130005698A1, “PHARMACEUTICAL FOR PREVENTING OR TREATING AN INNER EAR DISORDER” (University of Tsukuba, priority 2010, published 2013).

Assay [1] deals with high-level noise exposure mice. Nature of the assay: Evaluation of inner ear disorders in high-level noise exposure mice models (ABR threshold, cochlear hair cell loss). It is filed as in vivo, B6 mice. The note with it: for effect on increase of the auditory brainstem response (ABR) threshold caused by exposure to high-level noise: one week and two weeks after exposure. How it is done:
The test was carried out using high-level noise exposure mice. […] The auditory brainstem response (ABR) threshold was measured immediately before the exposure to high-level noise (initial value). At 1 week and 2 weeks after the exposure for 4 hours, the ABR was measured. For the prevention test, after measuring the ABR threshold at 2 weeks after, the inner ears were excised and fixed so as to allow pathological assessment of the loss of two types of hair cells, or inner and outer hair cells within the cochlea. The pathological assessment of the hair cell loss was carried out on the inner hair cells (one line of inner hair cells is represented by IHC) and outer hair cells (three lines of outer hair cells are represented by OHC 1, 2, and 3 from the inside to outside). The verification was carried out by analysis of variance (Fisher's test as post-hoc test). The mice were divided into two groups: a group exposed to high-level noise (control group, n=10), and a group exposed to high-level noise and administrated with fidarestat at a dose of 32 mg/kg/day (fidarestat-administrated group, n=10). The ABR and pathological assessment were carried out in 10 and 5 mice of each group, respectively. Fidarestat was administered mixed with the feed during the period from two days before to two weeks after the exposure to high-level noise. The mice were divided into five groups: a group exposed to high-level noise (control group, n=6), two group exposed to high-level noise and administrated with fidarestat at doses of 8 mg/kg/day or 32 mg/kg/day (fidarestat-administrated groups, n=6), a group exposed to high-level noise, and administrated with prednisolone at a dose of 1 mg/kg/day (prednisolone-administrated group, n=6), and a group exposed to high-level noise, and administrated of combination with prednisolone at a dose of 1 mg/kg/day and fidarestat at a dose of 32 mg/kg/day (combination use group, n=6). The ABR was carried out in 6 mice of each group. Fidarestat was administered mixed with the feed during the period immediately after to two weeks after the exposure to high-level noise. Prednisolone was orally administered immediately after the exposure to high-level noise.

Assay [2] has as its system outer hair cells of the organ of Corti. As to the kind of experiment: Gentamicin-induced loss of outer hair cells model (cultured organ of Corti). It is filed as cell-based, SD rats. The note with it: 48 hours culture; for loss rate of gentamicin-induced outer hair cells loss: control 50%. How it is done: After excision of the cochlea from SD rats of 3-5 days old, lateral walls were removed, and then the basal turn of the organ of Corti was extracted. The organ of Corti was incubated overnight, and then cultured in culture solutions containing gentamicin ([…]) and fidarestat at different concentrations (0, 0.05, 0.1, 0.2, 0.5, 1, and 2 μM) for 48 hours. After culturing, the organ of corti was fixed with 4% paraformaldehyde. The culture solution was a Dulbecco's modified eagles medium (DMEM solution) containing 10% fetal bovine serum, HEPES ([…]), and penicillin G ([…]), and the organ was cultured at 37° C., 5% CO2, at a humidity of 95%.

As to `NC(=O)[C@@H]1C[C@]2(NC(=O)NC2=O)c2cc(F)ccc2O1` [fidarestat, (2S,4S)-6-fluoro-2′,5′-dioxospiro[chroman-4,4′-imidazolidine]-2-carboxamide], in assay [1] (fidarestat 32 mg/kg/day vs prednisolone 1 mg/kg/day), the “therapeutic effect on ABR threshold increase compared to prednisolone-administrated group” value is “equivalent effect”. Moreover, the “effect on increase of the loss rate of cochlear outer hair cells” value in assay [1] (prophylactic 32 mg/kg/day, two weeks after exposure to high-level noise) was “significantly inhibited”. Moreover, the “effect on increase of the auditory brainstem response (ABR) threshold caused by exposure to high-level noise” value is “significantly inhibited” in assay [1] (prophylactic administration, 32 mg/kg/day mixed with feed from two days before to two weeks after exposure) and “significantly inhibited” in assay [1] (therapeutic administration, mixed with feed from immediately after to two weeks after exposure). Moreover, the figures for the “loss rate of gentamicin-induced outer hair cells loss” value in assay [2] (fidarestat 0.1 μM) and in assay [2] (fidarestat 0.5 μM or more) were “significantly reduced” and 25%, respectively. The “outer hair cells survival” value in assay [2] (fidarestat 0.5 μM or more) worked out at 75%.
